These results are taken from patent publication US5538976A, “Substituted tertiary amino compound or salt thereof” (Yamanouchi Pharmaceutical Co., Ltd., priority 1992, dated 1996).

The term EC50 denotes the concentration needed to bring the measured effect to its halfway point. The IC50 is the midpoint of a concentration-inhibition curve. The term inhibition denotes how much of the control response was suppressed.

Assay [1] deals with T1, aromatase (Rattus norvegicus, UniProt P22443).
T1 sequence (P22443 1-508): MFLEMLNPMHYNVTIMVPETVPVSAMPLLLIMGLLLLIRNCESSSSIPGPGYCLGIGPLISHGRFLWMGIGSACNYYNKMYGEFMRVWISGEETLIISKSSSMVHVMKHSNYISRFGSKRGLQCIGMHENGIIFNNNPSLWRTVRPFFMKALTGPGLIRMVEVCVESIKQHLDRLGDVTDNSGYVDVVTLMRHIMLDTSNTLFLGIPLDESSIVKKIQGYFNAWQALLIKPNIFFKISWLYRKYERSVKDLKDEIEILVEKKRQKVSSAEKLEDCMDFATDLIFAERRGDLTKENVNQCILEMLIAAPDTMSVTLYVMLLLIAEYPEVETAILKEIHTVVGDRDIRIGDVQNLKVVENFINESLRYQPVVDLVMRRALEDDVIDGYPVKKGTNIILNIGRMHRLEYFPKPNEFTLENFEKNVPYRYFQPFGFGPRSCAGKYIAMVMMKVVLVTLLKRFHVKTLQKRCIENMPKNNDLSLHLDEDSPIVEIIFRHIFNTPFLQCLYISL
Nature of the assay: biochemical.
From the text: IC50 of a test compound in aromatase inhibition was obtained from inhibition of ^3 H2 O released from [1,2-^3 H]-androstenedione in the microsome of a rat ovary.

Assay [2] addresses T2, aromatase (Homo sapiens, UniProt P11511).
T2 construct: in the microsome of a human placenta; from tissue; host or cells: human placenta microsomes
T2 sequence (P11511 1-503): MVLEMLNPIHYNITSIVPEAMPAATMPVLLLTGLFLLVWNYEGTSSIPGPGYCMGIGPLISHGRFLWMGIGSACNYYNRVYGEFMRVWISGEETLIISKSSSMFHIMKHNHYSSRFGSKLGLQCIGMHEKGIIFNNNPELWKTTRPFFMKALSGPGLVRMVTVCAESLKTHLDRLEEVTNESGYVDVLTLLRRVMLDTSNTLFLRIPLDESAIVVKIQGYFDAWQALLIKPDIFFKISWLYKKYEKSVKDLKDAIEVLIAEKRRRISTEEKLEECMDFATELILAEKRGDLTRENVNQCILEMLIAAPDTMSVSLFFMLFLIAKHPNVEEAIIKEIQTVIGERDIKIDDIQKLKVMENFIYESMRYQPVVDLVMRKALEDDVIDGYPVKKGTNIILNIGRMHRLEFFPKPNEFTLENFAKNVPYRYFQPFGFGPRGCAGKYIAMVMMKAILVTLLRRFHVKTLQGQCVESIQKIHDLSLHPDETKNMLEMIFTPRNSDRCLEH
The experiment in a line: Inhibiting activity on aromatase of human placenta origin (microsome, 3H2O release from [1,2-3H]androstenedione). Format: biochemical. The settings on record: in vitro, read-out: IC50 for in vitro aromatase inhibition. The text has this: (a) Inhibiting activity on aromatase of human placenta origin:
Measured in accordance with the method described in Endocrine Research, Vol. 16, No. 2, p. 253 (1990).
The inhibiting activity of a test compound was obtained from inhibition of ^3 H2 O released from [1,2-^3 H]androstenedione in the microsome of a human placenta.
IC50 value for in vitro aromatase inhibition in the microsome of a human placenta was obtained according to the method (2)-(a).

Assay [3] has as its system dimethylbenzanthracene (DMBA)-induced tumor. Nature of the assay: Antitumor activity in rat, DMBA-induced breast carcinoma. In kind it is in vivo. Particulars: orally, daily dose of from 0.04 to 1.0 mg/kg for 2 weeks, rats bearing breast carcinoma. As for the experimental part: (c) Antitumor activity in rat:
The antitumor activity on breast carcinoma was measured in a dimethylbenzanthracene (DMBA)-induced tumor in a female Sprague-Dawlay rat.
This experimentation is commonly employed as a method for determining an antitumor activity in an animal model of breast carcinoma.

For another assay, the system named is estradiol biosynthesis. The experiment in a line: In vivo inhibiting activity on estrogen production in rat (PMSG-primed, ovarian estradiol by RIA). Particulars: po, per os, 3 hours after administration, read-out: inhibition on estradiol biosynthesis with respect to the control. As for the experimental part: (b) In vivo inhibiting activity on estrogen production in rat:
PMSG (pregnant mare serum gonadotropin) (100 IU/rat) was subcutaneously injected to an immature female Wister rat weighing 60 g. After 72 hours from the injection, a suspension of a test compound in 0.5 ml of 20% polyethylene glycol aqueous solution was given to the rat per os. A 20% polyethylene glycol aqueous solution was administered to a control group. After 3 hours from the administration of the drug or placebo, the rat was decapitated and bled out, and the ovary was removed. The estradiol concentration in the ovary was measured by RIA.

SMILES strings stand for the structures. A value given as a limit tells only on which side of the number the result lay.

`Fc1ccc(N(Cc2ccccc2)Cc2cccnc2)c(F)c1` [Comparative Compound 2, reference compound] came in with an EC50 on aromatase [1] of under 50 nM.

For `N#Cc1ccc(N(Cc2cc(F)cc(F)c2)c2cncnc2)cc1` [Example 34, 5-[N-(4-Cyanophenyl)-N-(3,5-difluorobenzyl)amino]pyrimidine], the IC50 at aromatase [1] worked out at 0.22 nM; on aromatase [2] it was 0.036 nM. Besides, the “suppression or regression of tumors in the mammary gland” value in assay [3] is on record as “suppression or regression of tumors”. Moreover, in the assay on estradiol biosynthesis, the inhibition at 0.03 mg/kg turned out to be 86%.
